Source: patent US20190350964A1, “ANTI-CANCER COMPOUNDS AND USES THEREOF” (NATIONAL UNIVERSITY OF SINGAPORE, priority 2016, published 2019)

What was measured:
normal BJ cells [1] = experiment: γ-H2AX immunofluorescence (DNA damage); type: cell-based, human; details: 48 h; a131 2.5 and 5 μM, etoposide 100 μM
Protocol: For immunofluorescence analysis, cells grown on coverglass-bottom chamber slides (Lab-Tek) were fixed with 4% PFA (paraformaldehyde) for 15 min at 25° C. The fixed cells were permeabilized with 0.5% Triton X-100 and exposed to TBS containing 0.1% Triton X-100 and 2% BSA (AbDil). The following primary antibodies were diluted in PBS containing 1% BSA and 0.1% Triton X-100: anti-γ-tubulin (Sigma-Aldrich, #T6557; 1:1000) and anti-β-tubulin (Abcam, #ab18207; 1:2000). […] Cells were counterstained with DAPI (Thermo Scientific). […] For time-lapse live-cell analysis, a Stage Top Incubator with Digital CO2 mixer (Tokai) was used, and images were acquired at 37° C.

PI3K/Akt/mTOR pathway = experiment: Immunoblot of phosphorylated Akt and p70S6K; type: cell-based, human; details: normal versus transformed BJ cells, 24 h
Protocol: Total cell lysates were prepared with 1% triton lysis buffer [25 mM Tris HCl (pH 8.0), 150 mM NaCl, 1% triton-X100, 1 mM dithiothreitol (DTT), protease inhibitor mix (Complete Mini, Roche) and phosphatase inhibitor (PhosphoStop, Roche)] and subjected to SDS-PAGE. The following antibodies were used for immunoblotting: anti-β-actin (Sigma-Aldrich), anti-cleaved PARP (Abcam, #ab32064), anti-PI5P4Kα (#5527), anti-PI5P4Kβ (#9694), anti-cleaved caspase-3 (#9664), anti-pHistone H3(Ser10) (#3377), anti-pAkt(S473) (#9271), anti-pAkt(T308) (#13038), anti-total Akt (#9272), anti-p70S6K(T389) (#9234), anti-total p70S6K (#9202), anti-pErk (#4370), anti-γ-Histone H2AX (#9718) (Cell signaling) and anti-PIK3IP1 (Proteintech, #16826-1-AP). The secondary antibodies used were sheep anti-mouse IgG HRP and donkey anti-rabbit IgG HRP (Amersham; 1:2000 dilution). Immunoreactive proteins were visualized using ECL reagent (Amersham). Where indicated, intensities of protein bands were quantified by densitometry (Odyssey V3.0), normalized to their loading controls and then calculated as fold expression change relative to DMSO control.

RPE-1/hTert = experiment: MTT cytotoxicity test (GI50); type: cell-based; details: Homo sapiens, normal, retina, MTT 72 h
[2] = target: T1, Retinal rod rhodopsin-sensitive cGMP 3′,5′-cyclic phosphodiesterase subunit delta (Homo sapiens, UniProt O43924); experiment: MS-CETSA in normal BJ cell lysates; type: binding; details: lysate, 100 μM compound
T1 construct: After collecting data covering >8,000 proteins in lysates of normal BJ cells; endogenous in cells; host or cells: normal BJ cells, lysate
Protocol: (§1) Target identification was performed by cellular thermal shift assay (CETSA) coupled with quantitative mass spectrometry. In brief, normal BJ cells were lysed by combination of freeze/thaw and mechanical shearing with needle in buffer [50 mM HEPES (pH 7.5), 5 mM β-glycerophosphate, 0.1 mM Sodium Vanadate, 10 mM MgCl2, 1 mM TCEP and 1× Protease inhibitor Cocktail]. The cell debris was removed by centrifugation at 20,000 g for 20 min at 4° C. […] Each lysate was divided into 10 aliquots for heat treatment at the respective temperatures for 3 min in a 96-well thermocycler, followed by 3 min at 4° C. The lysate was centrifuged at 20,000 g for 20 min at 4° C. and the supernatant was transferred into microtubes for MS sample preparation.
(§2) After lysis, at least 100 μg of the protein (measured with a BCA assay) was subjected to reduction, denaturation and alkylation. Samples were subsequently incubated with sequencing grade LysC (Wako) and trypsin (Promega) for digestion overnight at 37° C. The digested samples were dried using a centrifugal vacuum evaporator, solubilized in 100 mM TEAB. […]
(§3) Proteins for which a low temperature plateau was not present were deleted using a cut off >0.85 for the average reading of the first three temperature points (in our experience proteins melting already at −37° C. are more prone to give false positives in a shift analysis).

WI38 = experiment: MTT cytotoxicity test (GI50); type: cell-based; details: Homo sapiens, WI-38; WI38, normal, lung; MTT 72 h
U2OS = experiment: MTT cytotoxicity test (GI50); type: cell-based; details: Homo sapiens, cancer, others, bone, MTT 72 h
ARPE-19 = experiment: MTT cytotoxicity test (GI50); type: cell-based; details: Homo sapiens; ARPE-19, normal, retina; MTT 72 h
Liprin-beta-1 = target: T2, Liprin-beta-1 (Homo sapiens, UniProt Q86W92); experiment: MS-CETSA in normal BJ cell lysates; type: binding; details: lysate, 100 μM compound
T2 construct: After collecting data covering >8,000 proteins in lysates of normal BJ cells; endogenous in cells; host or cells: normal BJ cells, lysate
Protocol: as §1, §2, §3

SCH = experiment: MTT cytotoxicity test (GI50); type: cell-based; details: Homo sapiens, cancer, gastric, MTT 72 h
normal BJ cells [3] = experiment: BrdU incorporation / cell growth arrest; type: cell-based, human
Protocol: Cell death was assessed via Annexin V and/or PI (propidium iodide) staining according to the manufacturer's instructions (eBioscience). Cell growth arrest was assessed by direct measurement of DNA synthesis through incorporation of the nucleoside analog bromodeoxyuridine (BrdU). Briefly, BrdU (30 μM, Sigma-Aldrich) was added for 2 h before harvesting cells. Cells were subsequently stained with Pacific Blue-conjugated BrdU antibody (Invitrogen) for 1 h followed by PI staining. Stained cells were analyzed by MACSQuant (MACS). Three independent experiments were performed in triplicate. The percentage of Annexin V/PI- or BrdU-positive cells was quantified using Flow Jo software (Becton Dickinson). Where indicated, the combined activity of caspase-3/7 was determined using the caspase-Glo 3/7 Assay Kit (Promega) and normalized to the number of viable cells as determined by MTT assay.

NCC19 = experiment: MTT cytotoxicity test (GI50); type: cell-based; details: Homo sapiens; NCC19, cancer, gastric; MTT 72 h
transformed BJ cells = experiment: Time-lapse live-cell imaging and immunofluorescence of mitosis; type: cell-based, human; details: 2.5 μM
Protocol: For immunofluorescence analysis, cells grown on coverglass-bottom chamber slides (Lab-Tek) were fixed with 4% PFA (paraformaldehyde) for 15 min at 25° C. The fixed cells were permeabilized with 0.5% Triton X-100 and exposed to TBS containing 0.1% Triton X-100 and 2% BSA (AbDil). The following primary antibodies were diluted in PBS containing 1% BSA and 0.1% Triton X-100: anti-γ-tubulin (Sigma-Aldrich, #T6557; 1:1000) and anti-β-tubulin (Abcam, #ab18207; 1:2000). Isotype-specific secondary antibodies (1:500 dilution) coupled to Alexa Fluor 488, 594, or Cy5 (Molecular Probes) were used. Cells were counterstained with DAPI (Thermo Scientific). Images were acquired at RT with 3D-SIM mode using a Super Resolution Microscope (Nikon) equipped with an iXon EM+885 EMCCD camera (Andor) mounted on a Nikon Eclipse Ti-E inverted microscope with a CFI Apo TIRF (100×/1.40 oil) objective and processed with the NIS-Elements AR software. For time-lapse live-cell analysis, a Stage Top Incubator with Digital CO2 mixer (Tokai) was used, and images were acquired at 37° C.

HGC27 = experiment: MTT cytotoxicity test (GI50); type: cell-based; details: Homo sapiens, HGC-27; HGC27, cancer, gastric; MTT 72 h
[4] = target: T3, Phosphatidylinositol 5-phosphate 4-kinase type-2 gamma (Homo sapiens, UniProt Q8TBX8); experiment: MS-CETSA in normal BJ cell lysates; type: binding; details: lysate, 100 μM compound
T3 construct: After collecting data covering >8,000 proteins in lysates of normal BJ cells; endogenous in cells; host or cells: normal BJ cells, lysate
Protocol: as §1, §2, §3

[5] = target: T4, RNA-binding motif, single-stranded-interacting protein 1 (Homo sapiens, UniProt P29558); experiment: MS-CETSA in normal BJ cell lysates; details: Uniprot B4DN88, lysate, 100 μM compound
T4 construct: After collecting data covering >8,000 proteins in lysates of normal BJ cells; endogenous in cells; host or cells: normal BJ cells, lysate
Protocol: as §1, §2, §3

[6] = target: T5, Coproporphyrinogen-III oxidase, mitochondrial (Homo sapiens, UniProt P36551); experiment: MS-CETSA in normal BJ cell lysates; type: binding; details: lysate, 100 μM compound
T5 construct: After collecting data covering >8,000 proteins in lysates of normal BJ cells; endogenous in cells; host or cells: normal BJ cells, lysate
Protocol: as §1, §2, §3

HT29 = experiment: MTT cytotoxicity test (GI50); type: cell-based; details: Homo sapiens, HT-29; HT29, cancer, colon; MTT 72 h
Pyridoxal kinase = target: T6, Pyridoxal kinase (Homo sapiens, UniProt O00764); experiment: MS-CETSA in normal BJ cell lysates; type: binding; details: lysate, 100 μM compound
T6 construct: After collecting data covering >8,000 proteins in lysates of normal BJ cells; endogenous in cells; host or cells: normal BJ cells, lysate
T6 sequence (O00764 whole entry): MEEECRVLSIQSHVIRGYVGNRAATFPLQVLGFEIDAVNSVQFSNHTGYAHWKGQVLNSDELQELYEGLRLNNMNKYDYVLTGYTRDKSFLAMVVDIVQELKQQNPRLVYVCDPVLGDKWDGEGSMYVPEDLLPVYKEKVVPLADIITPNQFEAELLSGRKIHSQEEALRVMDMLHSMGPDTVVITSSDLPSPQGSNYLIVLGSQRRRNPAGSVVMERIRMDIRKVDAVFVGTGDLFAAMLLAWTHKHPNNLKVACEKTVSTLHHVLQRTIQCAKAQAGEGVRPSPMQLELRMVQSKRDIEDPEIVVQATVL
Protocol: as §1, §2, §3

T4 sequence (P29558 whole entry): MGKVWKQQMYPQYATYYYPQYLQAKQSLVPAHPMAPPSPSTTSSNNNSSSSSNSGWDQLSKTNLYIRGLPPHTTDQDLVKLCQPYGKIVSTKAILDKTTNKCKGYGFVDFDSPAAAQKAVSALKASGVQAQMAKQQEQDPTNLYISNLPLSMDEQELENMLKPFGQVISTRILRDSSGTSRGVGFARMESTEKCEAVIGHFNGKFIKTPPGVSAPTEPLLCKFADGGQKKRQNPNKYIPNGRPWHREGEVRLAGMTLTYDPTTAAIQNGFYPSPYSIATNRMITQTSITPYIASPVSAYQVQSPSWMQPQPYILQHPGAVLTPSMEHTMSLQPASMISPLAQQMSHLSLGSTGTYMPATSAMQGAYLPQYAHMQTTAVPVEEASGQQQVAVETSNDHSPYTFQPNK
T5 sequence (P36551 111-454): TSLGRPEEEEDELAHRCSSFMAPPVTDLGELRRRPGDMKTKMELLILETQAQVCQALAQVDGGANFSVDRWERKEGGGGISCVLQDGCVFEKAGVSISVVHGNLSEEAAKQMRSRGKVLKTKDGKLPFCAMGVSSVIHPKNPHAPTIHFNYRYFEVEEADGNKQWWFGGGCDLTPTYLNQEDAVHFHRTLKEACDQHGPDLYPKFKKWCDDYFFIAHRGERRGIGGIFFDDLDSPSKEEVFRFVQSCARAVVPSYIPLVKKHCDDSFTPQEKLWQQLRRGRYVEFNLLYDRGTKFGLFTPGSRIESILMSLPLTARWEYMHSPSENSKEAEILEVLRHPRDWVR
T3 sequence (Q8TBX8 whole entry): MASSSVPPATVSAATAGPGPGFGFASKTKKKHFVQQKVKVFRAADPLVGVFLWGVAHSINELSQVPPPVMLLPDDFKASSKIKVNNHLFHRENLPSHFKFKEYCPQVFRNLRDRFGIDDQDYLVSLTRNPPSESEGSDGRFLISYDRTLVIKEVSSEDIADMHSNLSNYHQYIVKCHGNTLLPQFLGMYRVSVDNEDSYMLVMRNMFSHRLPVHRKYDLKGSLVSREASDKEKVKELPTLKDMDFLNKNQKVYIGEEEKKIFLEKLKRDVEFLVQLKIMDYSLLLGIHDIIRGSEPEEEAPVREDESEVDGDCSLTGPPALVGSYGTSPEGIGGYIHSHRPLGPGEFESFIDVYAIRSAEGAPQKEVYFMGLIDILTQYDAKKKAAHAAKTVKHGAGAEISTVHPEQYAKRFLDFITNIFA
T1 sequence (O43924 whole entry): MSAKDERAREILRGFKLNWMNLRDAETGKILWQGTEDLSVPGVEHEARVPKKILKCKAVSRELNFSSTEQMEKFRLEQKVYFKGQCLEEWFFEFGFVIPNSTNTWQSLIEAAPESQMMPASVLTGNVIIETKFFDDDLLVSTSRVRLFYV
T2 sequence (Q86W92 whole entry): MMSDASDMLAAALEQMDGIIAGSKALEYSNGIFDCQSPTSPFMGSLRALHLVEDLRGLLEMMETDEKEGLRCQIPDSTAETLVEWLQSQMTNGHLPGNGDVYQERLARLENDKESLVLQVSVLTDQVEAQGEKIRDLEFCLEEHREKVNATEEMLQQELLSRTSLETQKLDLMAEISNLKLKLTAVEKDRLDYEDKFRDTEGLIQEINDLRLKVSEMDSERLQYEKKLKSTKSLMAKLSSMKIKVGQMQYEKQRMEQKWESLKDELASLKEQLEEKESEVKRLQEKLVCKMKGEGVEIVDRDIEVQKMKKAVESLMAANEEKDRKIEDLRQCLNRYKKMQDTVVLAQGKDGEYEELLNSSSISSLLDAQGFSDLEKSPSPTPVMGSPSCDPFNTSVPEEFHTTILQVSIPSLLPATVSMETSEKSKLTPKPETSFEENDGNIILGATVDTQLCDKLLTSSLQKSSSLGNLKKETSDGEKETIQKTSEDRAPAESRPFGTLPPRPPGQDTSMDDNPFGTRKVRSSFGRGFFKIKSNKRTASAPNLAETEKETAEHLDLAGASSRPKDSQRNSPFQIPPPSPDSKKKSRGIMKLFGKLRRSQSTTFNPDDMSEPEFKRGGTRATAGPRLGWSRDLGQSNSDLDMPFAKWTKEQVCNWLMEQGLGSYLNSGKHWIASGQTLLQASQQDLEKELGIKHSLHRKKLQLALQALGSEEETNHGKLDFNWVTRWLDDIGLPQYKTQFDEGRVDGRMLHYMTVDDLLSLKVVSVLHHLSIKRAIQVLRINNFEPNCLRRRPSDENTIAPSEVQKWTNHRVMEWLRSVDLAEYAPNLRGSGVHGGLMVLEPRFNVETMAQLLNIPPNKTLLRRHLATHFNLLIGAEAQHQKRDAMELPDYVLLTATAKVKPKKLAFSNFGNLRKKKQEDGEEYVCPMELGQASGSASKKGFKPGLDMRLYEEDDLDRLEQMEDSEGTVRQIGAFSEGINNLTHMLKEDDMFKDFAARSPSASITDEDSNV

N#C/C(=C\c1cccc2cnccc12)c1c[nH]c2ccccc12 [a131, (Z)-2-(1H-indol-3-yl)-3-(5-isoquinolyl)prop-2-enenitrile]
DNA damage (γ-H2AX staining) (normal BJ cells [1]): did not do so
inhibition of the PI3K/Akt/mTOR pathway (PI3K/Akt/mTOR pathway): consistently caused inhibition of the PI3K/Akt/mTOR pathway only in normal BJ cells, but not in transformed counterparts
GI50 (RPE-1/hTert): 5.2 µM
ED score [2]: 0.3092
ΔTm at 100 µM ([2]; read-out: mean Delta Tm): 3.02 °C
GI50 (WI38): 3.4 µM
GI50 (U2OS): 1500 nM
GI50 (ARPE-19): > 10 µM
ED score (Liprin-beta-1): 0.3387
ΔTm at 100 µM (Liprin-beta-1; read-out: mean Delta Tm): 2.07 °C
GI50 (SCH): 1700 nM
cell cycle arrest (BrdU incorporation) (normal BJ cells [3]; 2.5 μM, 48 h): arrested normal BJ cells at the G1/S phase of the cell cycle with few BrdU incorporation
reversibility of growth arrest after drug removal (normal BJ cells [3]; 5 μM for 2 or 4 days, then fresh media up to 11 days): transient and reversible after a131 removal
GI50 (NCC19): 4.6 µM
mitotic arrest (time-lapse analysis) (transformed BJ cells): immediately induced mitotic arrest in transformed BJ cells
centrosome de-clustering and multipolar mitotic spindles (transformed BJ cells; 32 h): caused de-clustered centrosomes and multipolar mitotic-spindles in transformed BJ
GI50 (HGC27): 1200 nM
ED score [4]: 0.5989
ΔTm at 100 µM ([4]; read-out: mean Delta Tm): 2.89 °C
ED score [5]: 0.3144
ΔTm at 100 µM ([5]; read-out: mean Delta Tm): 2.01 °C
ED score [6]: 0.3274
ΔTm at 100 µM ([6]; read-out: mean Delta Tm): 1.61 °C
GI50 (HT29): 900 nM
ED score (Pyridoxal kinase): 0.4486
ΔTm at 100 µM (Pyridoxal kinase; read-out: mean Delta Tm): 2.01 °C
